Experiments:
ENFs = ENFs cultured on stiff tissue culture plastic (TCPS) with ROCK inhibitor: En-1 activation; format: cell-based, mouse; conditions: bulk ENFs on stiff TCPS with ROCK inhibitor, 14 days in culture
Description: (§1) Mice were euthanized by CO2 narcosis and cervical dislocation, the dorsal fur was clipped, a depilatory cream was applied topically to the dorsum for 30 seconds. Next, the dorsal skin was harvested using dissecting scissors by separation along fascial planes, the subcutaneous fat was trimmed with a scalpel, and the skin was rinsed in betadine, followed by 5 rinses in cold PBS. To achieve a cell suspension, the harvested skin was finely minced using sharp scissors, enzymatically digested (Liberase DL, 0.5 mg/mL, 1 hour), and filtered through a 40 μm nylon mesh. ENFs and EPFs were isolated from En-1^Cre;R26^mTmG mice (En-1 lineage-negative cells, mTomato^+; En-1 lineage-positive cells, GFP^+) via a previously reported FACS strategy. Briefly, a lineage gate (Lin) for hematopoietic (CD45, Ter-119), endothelial (CD31, Tie2), and epithelial (CD326, CD324) cell markers was used as a negative gate to isolate fibroblasts (Lin^−), which were sorted into ENFs (Tornato^+GFP^−Lin^−) and EPFs (Tomato^−GFP+ Lin^−). To isolate ENF subpopulations, dorsal skin cells were harvested from P1 En-1^Cre,Ai6 mice (En-1 lineage-negative cells, no fluorescence; En-1 lineage-positive cells, GFP^+) via mechanical and enzymatic digestion as described above. […]

[1] = tested on: reticular dermal (Dlk1^+) ENFs; assay: Fractionated ENF subpopulations cultured on TCPS with or without ROCK inhibitor; format: cell-based, mouse; conditions: 14 days, ROCK inhibitor added
Description: as §1

## C[C@@H](N)[C@H]1CC[C@H](C(=O)Nc2ccncc2)CC1 [Y-27632]
ENFs
  En-1 activation (conversion of ENFs to GFP+ EPFs): lack of En-1 activation
[1]
  En-1 activation in Dlk1+ ENFs: blocked
